The text below walks through data of article PMC9103715, “New Panx-1 Blockers: Synthesis, Biological Evaluation and Molecular Dynamic Studies” (International Journal of Molecular Sciences, 2022).

One series has as its target T1, Panx-1 channels (Mus musculus, UniProt Q9JIP4).
T1 construct: expressed in transfected cells; host or cells: Xenopus laevis oocytes injected with in vitro-transcribed mRNA
In words: Voltage clamp on Xenopus laevis oocytes expressing Panx-1 channels. Format: cell-based. As to conditions: for inhibition at 50 µM / I (%) inhibition of Panx-1 currents: voltage clamp, Xenopus laevis oocytes expressing Panx-1 channels, 50 µM; for inhibition at 50 µM: read-out: I (%) inhibition of Panx-1 currents; for classification as active or inactive Panx-1 blocker: grouping chosen for the virtual screening. The procedure: All new products were screened as Panx-1 blockers at the dose of 50 µM using the Voltage Clamp technique on Xenopus Laevis oocytes expressing Panx-1 channels. The membrane potential of the cells was held at -60 mV and voltage steps to +60 mV were applied to induce membrane currents. To verify that Panx-1 channels carried the currents, in each experiment 100 µM carbenoxolone (CBX) was applied. At this concentration, CBX is known to yield 100% inhibition of Panx-1 activity. If present, leak currents resistant to CBX were subtracted from the total current to assess % inhibition mediated by the tested compounds. Table 1 and Table 2 report the electrophysiological results of naphthalene-2-sulphonic acid derivatives bearing at position 5 an amino- (3a–e, 4 and 5) or amide group (7a–g, 8 and 9) and of compound 13.
Oocytes of Xenopus laevis are prepared as previously described in [39] where the oocytes are isolated from surgically removed ovary segments incubated in an Oocyte Ringe solution Ca2-free (OR2: in mM: 82.5 NaCl, 2.5 KCl, 1.0 MgCl2, […], 1.0 Na2HPO4 e 5.0 HEPES, pH 7.5) with 2 mg/mL of collagenase and antibiotics (10,000 U/mL penicillin and 10 mg/mL of streptomycin) stirred at room temperature for 3 h. After being washed with OR2, oocytes free of follicular cells and that have a uniform pigmentation are chosen and stored in OR2 for 18 °C.
Mouse pannexin1, in pCS2, was linearised with NotI. In vitro transcription was performed with the polymerase SP6, using the Message Machine kit (Ambion). mRNA was quantified by absorbance (260 nm), and the proportion of full-length transcripts was checked by agarose gel electrophoresis. In vitro-transcribed mRNA (~20 nL) was injected into Xenopus laevis oocytes.
Whole-cell membrane currents of oocytes were measured using a two-electrode voltage clamp (Gene Clamp 500B, Axon Instruments/Molecular Devices Sunnyvale, Union City, CA, USA). Glass pipettes were pulled using a P-97 Flaming/Brown type puller (Sutter, Novato, CA, USA). The recording chamber was perfused continuously with frog Ringer (OR) solution (in mM: 82.5 NaCl, 2.5 KCl, 1 CaCl2, 1 MgCl2, 1 Na2HPO4, and 5 HEPES, pH 7.5).
Membrane conductance was determined using voltage pulses, and the pulse-induced current amplitudes were divided by the amplitudes of the voltage steps. For calculation of % inhibition, leak currents were subtracted. Typically, leak currents after the interventions were smaller than at the beginning of the experiment and this smaller value was used for the subtraction to avoid overestimation of the inhibitory effect. For an independent measure of the leak current, oocytes at the end of the experiment were exposed to 100 µM carbenoxolone, which is known to close Panx1 channels 100%. Oocytes expressing Panx1 were held at −60 mV, and pulses to +60 mV were applied to transiently open the channels by means of the voltage gate. Pulses 5 s in duration were applied at 0.1 Hz for current and conductance measurements.

T1 sequence (Q9JIP4 whole entry): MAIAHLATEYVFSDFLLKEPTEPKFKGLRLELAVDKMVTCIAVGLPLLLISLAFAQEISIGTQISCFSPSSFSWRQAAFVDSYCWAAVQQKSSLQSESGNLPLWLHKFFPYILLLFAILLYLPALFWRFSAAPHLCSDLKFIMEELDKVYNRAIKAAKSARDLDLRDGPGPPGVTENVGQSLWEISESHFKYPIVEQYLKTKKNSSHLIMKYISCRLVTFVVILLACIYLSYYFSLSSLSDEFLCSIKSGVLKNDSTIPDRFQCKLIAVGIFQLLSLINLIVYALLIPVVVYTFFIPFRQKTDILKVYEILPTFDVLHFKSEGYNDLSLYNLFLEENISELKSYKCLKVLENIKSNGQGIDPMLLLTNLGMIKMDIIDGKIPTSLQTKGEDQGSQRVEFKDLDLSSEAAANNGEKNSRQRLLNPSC

In general, melting point refers to the temperature of the solid-liquid transition. `O=S(=O)(O)c1ccc2c(NCc3ccccc3)cccc2c1` (hydrate or solvate) [Compound 3a, 5-(Benzylamino)naphthalene-2-Sulfonic Acid] displayed a melting point above 300 °C. Same read-out and setting: to `O=S(=O)(O)c1ccc2c(NCCc3ccccc3)cccc2c1` (hydrate or solvate) [Compound 3b, 5-(Phenethylamino)naphthalene-2-sulfonic acid] belongs above 300 °C; to `O=S(=O)(O)c1ccc2c(NCCCc3ccccc3)cccc2c1` (hydrate or solvate) [Compound 3c, 5-[(3-Phenylpropyl)amino]naphthalene-2-sulfonic acid], above 300 °C; to `O=S(=O)(O)c1ccc2c(NCCCCc3ccccc3)cccc2c1` (hydrate or solvate) [Compound 3d, 5-[(4-Phenylbutyl)amino]naphthalene-2-sulfonic acid], above 300 °C. In the case of `O=S(=O)(O)c1ccc2c(NCCCCCc3ccccc3)cccc2c1` (hydrate or solvate) [Compound 3e, 5-[(5-Phenylpentyl)amino]naphthalene-2-sulfonic acid], the melting point is above 300 °C. Same read-out and setting: as for `O=C(O)c1ccc(CNc2cccc3cc(S(=O)(=O)O)ccc23)cc1` (hydrate or solvate) [Compound 4, 4-[(6-Sulfonaphthalen-1-yl)aminomethyl]benzoic Acid], the figure is above 300 °C; as for `CN(Cc1ccccc1)c1cccc2cc(S(=O)(=O)O)ccc12` (hydrate or solvate) [Compound 5, 5-(Benzyl(methyl)amino)naphthalene-2-sulfonic Acid], above 300 °C. Still for that read-out and setting: as for `CCN(CC)S(=O)(=O)c1ccc(C(=O)Nc2cccc3cc(S(=O)(=O)O)ccc23)cc1` (hydrate or solvate) [Compound 7a, 5-[4-(N,N-diethylsulfamoyl)benzamido]naphthalene-2-sulfonic acid], the figure is above 300 °C. Same read-out and setting: to `CCCN(CCC)S(=O)(=O)c1ccc(C(=O)Nc2cccc3cc(S(=O)(=O)O)ccc23)cc1` (hydrate or solvate) [Compound 7b, 5-[4-(N,N-dipropylsulfamoyl)benzamido]naphthalene-2-sulfonic acid] belongs above 300 °C. As for `CCCCN(CCCC)S(=O)(=O)c1ccc(C(=O)Nc2cccc3cc(S(=O)(=O)O)ccc23)cc1` (hydrate or solvate) [Compound 7c, 5-[4-(N,N-dibutylsulfamoyl)benzamido]naphthalene-2-sulfonic acid], the melting point was above 300 °C. Still for that read-out and setting: to `O=C(Nc1cccc2cc(S(=O)(=O)O)ccc12)c1ccc(S(=O)(=O)N(Cc2ccccc2)Cc2ccccc2)cc1` (hydrate or solvate) [Compound 7d, 5-[4-(N,N-dibenzylsulfamoyl)benzamido]naphthalene-2-sulfonic acid] belongs above 300 °C; to `O=C(Nc1cccc2cc(S(=O)(=O)O)ccc12)c1ccc(S(=O)(=O)N(CCc2ccccc2)CCc2ccccc2)cc1` (hydrate or solvate) [Compound 7e, 5-[4-(N,N-diphenethylsulfamoyl)benzamido]naphthalene-2-sulfonic acid], above 300 °C.

`O=C(Nc1cccc2cc(S(=O)(=O)O)ccc12)c1ccc(S(=O)(=O)N(CCc2ccccc2)Cc2ccccc2)cc1` (hydrate or solvate) [Compound 7f, 5-[4-(N-benzyl-N-phenethylsulfamoyl)benzamido]naphthalene-2-sulfonic acid]: the melting point was above 300 °C. `O=C(Nc1cccc2cc(S(=O)(=O)O)ccc12)c1ccc(S(=O)(=O)NCCc2ccccc2)cc1` (hydrate or solvate) [Compound 7g, 5-[4-(N-phenethylsulfamoyl)benzamido]naphthalene-2-sulfonic acid] registered a melting point above 300 °C. Regarding `O=C(O)c1ccc(CN(Cc2ccc(C(=O)O)cc2)S(=O)(=O)c2ccc(C(=O)O)cc2)cc1` (hydrate or solvate) [Compound 13, 4,4′-{{[(4-Carboxyphenyl)sulfonyl]azanediyl}bis(methylene)}dibenzoic acid], the melting point was above 300 °C. Usually inhibition stands for the change of the read-out against control, counted positive when it falls. With `O=S(=O)(O)c1ccc2c(NCc3ccccc3)cccc2c1` [Compound 3a, 5-(Benzylamino)naphthalene-2-Sulfonic Acid], on Panx-1 channels, the inhibition at 50 µM is 31.7 ± 0.9% and the “classification as active or inactive Panx-1 blocker” value (from here on “classification”) is “inactive”. On to `O=S(=O)(O)c1ccc2c(NCCc3ccccc3)cccc2c1` [Compound 3b, 5-(Phenethylamino)naphthalene-2-sulfonic acid], for which, at Panx-1 channels, the inhibition at 50 µM amounted to 24.3 ± 3.5%.

On to `O=S(=O)(O)c1ccc2c(NCCCCc3ccccc3)cccc2c1` [Compound 3d, 5-[(4-Phenylbutyl)amino]naphthalene-2-sulfonic acid], for which the inhibition at 50 µM on Panx-1 channels amounted to 47 ± 5.7%.

Take `O=S(=O)(O)c1ccc2c(NCCCCCc3ccccc3)cccc2c1` [Compound 3e, 5-[(5-Phenylpentyl)amino]naphthalene-2-sulfonic acid]: at Panx-1 channels, the inhibition at 50 µM turned out to be 62 ± 6%.

`COC(=O)c1ccc(CNc2cccc3cc(S(=O)(=O)O)ccc23)cc1` [Compound 3f, 5-[(4-(Methoxycarbonyl)benzyl)amino]naphthalene-2-sulfonic acid] displayed a melting point above 300 °C. For the molecule `CN(Cc1ccccc1)c1cccc2cc(S(=O)(=O)O)ccc12` [Compound 5, 5-(Benzyl(methyl)amino)naphthalene-2-sulfonic Acid], the inhibition at 50 µM on Panx-1 channels was determined as 27.3 ± 2.6%. On to `CCN(CC)S(=O)(=O)c1ccc(C(=O)Nc2cccc3cc(S(=O)(=O)O)ccc23)cc1` [Compound 7a, 5-[4-(N,N-diethylsulfamoyl)benzamido]naphthalene-2-sulfonic acid], for which the inhibition at 50 µM on Panx-1 channels worked out at 54 ± 2.3%. With `CCCN(CCC)S(=O)(=O)c1ccc(C(=O)Nc2cccc3cc(S(=O)(=O)O)ccc23)cc1` [Compound 7b, 5-[4-(N,N-dipropylsulfamoyl)benzamido]naphthalene-2-sulfonic acid], at Panx-1 channels, the “I (%) inhibition of Panx-1 currents” value was 34.3 ± 5.2% and the inhibition at 50 µM was 34%. Consider `O=C(Nc1cccc2cc(S(=O)(=O)O)ccc12)c1ccc(S(=O)(=O)N(CCc2ccccc2)CCc2ccccc2)cc1` [Compound 7e, 5-[4-(N,N-diphenethylsulfamoyl)benzamido]naphthalene-2-sulfonic acid], for which, on Panx-1 channels, the inhibition at 50 µM worked out at 58.3 ± 7.5%. On the same count and under the same terms, as for `O=C(Nc1cccc2cc(S(=O)(=O)O)ccc12)c1ccc(S(=O)(=O)N(CCc2ccccc2)Cc2ccccc2)cc1` [Compound 7f, 5-[4-(N-benzyl-N-phenethylsulfamoyl)benzamido]naphthalene-2-sulfonic acid], the figure is 61.3 ± 4.3%. As to `O=C(Nc1cccc2cc(S(=O)(=O)O)ccc12)c1ccc(S(=O)(=O)NCCc2ccccc2)cc1` [Compound 7g, 5-[4-(N-phenethylsulfamoyl)benzamido]naphthalene-2-sulfonic acid], at Panx-1 channels, the inhibition at 50 µM was determined as 47.3 ± 6.5% and the “classification” value is “inactive”.

As for `O=C(Nc1cccc2cc(S(=O)(=O)O)ccc12)c1ccccc1` [Compound 8, 5-Benzamidonaphthalene-2-sulfonic Acid], on Panx-1 channels, the “I (%) inhibition of Panx-1 currents” value turned out to be 15.3 ± 4.9%, the inhibition at 50 µM was found to be 15% and the “classification” value is “inactive”.

As to `CCCCN(CCCC)S(=O)(=O)c1ccc(C(=O)Nc2cccc3cc(S(=O)(=O)[O-])ccc23)cc1.[Na+]` [Compound 9, Sodium 5-[4-(N,N-dibutylsulfamoyl)benzamido]naphthalene-2-sulfonate], at Panx-1 channels, the “I (%) inhibition of Panx-1 currents” value came out at 65.3 ± 3.9%. Take `Nc1c(C(=O)O)cnn1-c1ccc(S(N)(=O)=O)cc1` [Compound 17, 5-Amino-1-(4-sulfamoylphenyl)-1H-pyrazole-4-carboxylic acid]: the melting point lay in the range of 210 to 211 °C. Moreover, on Panx-1 channels, the inhibition at 50 µM was determined as 0%. Turning to `CCNS(=O)(=O)c1ccc(-n2ncc(C(=O)O)c2N)cc1` [Compound 18a, 5-Amino-1-(4-(N-ethylsulfamoyl)phenyl)-1H-pyrazole-4-carboxylic acid], the melting point was 208 to 210 °C (dec.). Further, the inhibition at 50 µM at Panx-1 channels was found to be 0%.
